Experiments:
[1] = biological target: T1, CDK9/CycT1 (Homo sapiens, UniProt P50750); assay: Kinase panel profiling at 1 µmol/L (mobility shift assay, Carna); type: biochemical; settings: 1 µmol/L of BTK inhibitor
T1 construct: purchased Carna Biosciences

[2] = biological target: T2, PKCγ (Homo sapiens, UniProt P05129); assay: as above; type: biochemical; settings: 1 µmol/L of BTK inhibitor
T2 construct: purchased Carna Biosciences

[3] = biological target: T3, WNK2 (Homo sapiens, UniProt Q9Y3S1); assay: as above; type: biochemical; settings: 1 µmol/L of BTK inhibitor
T3 construct: purchased Carna Biosciences

[4] = biological target: FGFR3 (Homo sapiens, UniProt P22607); assay: Kinase enzyme activity assay (mobility shift assay, Carna); settings: for Percentage inhibition of kinase enzyme activity: FGFR3, 1 µmol/L of BTK inhibitor
[5] = biological target: T4, QIK (Homo sapiens, UniProt Q9H0K1); assay: Kinase panel profiling at 1 µmol/L (mobility shift assay, Carna); type: biochemical; settings: 1 µmol/L of BTK inhibitor
T4 construct: purchased Carna Biosciences

[6] = biological target: FGFR4 (Homo sapiens, UniProt P22455); assay: Kinase enzyme activity assay (mobility shift assay, Carna); settings: for Percentage inhibition of kinase enzyme activity: FGFR4, 1 µmol/L of BTK inhibitor
[7] = biological target: T5, ABL (Homo sapiens, UniProt P00519); assay: Kinase panel profiling at 1 µmol/L (mobility shift assay, Carna); type: biochemical; settings: 1 µmol/L of BTK inhibitor
T5 construct: purchased Carna Biosciences

[8] = biological target: T6, CaMK2γ (Homo sapiens, UniProt Q13555); assay: as above; type: biochemical; settings: 1 µmol/L of BTK inhibitor
T6 construct: purchased Carna Biosciences
T6 sequence (Q13555 whole entry): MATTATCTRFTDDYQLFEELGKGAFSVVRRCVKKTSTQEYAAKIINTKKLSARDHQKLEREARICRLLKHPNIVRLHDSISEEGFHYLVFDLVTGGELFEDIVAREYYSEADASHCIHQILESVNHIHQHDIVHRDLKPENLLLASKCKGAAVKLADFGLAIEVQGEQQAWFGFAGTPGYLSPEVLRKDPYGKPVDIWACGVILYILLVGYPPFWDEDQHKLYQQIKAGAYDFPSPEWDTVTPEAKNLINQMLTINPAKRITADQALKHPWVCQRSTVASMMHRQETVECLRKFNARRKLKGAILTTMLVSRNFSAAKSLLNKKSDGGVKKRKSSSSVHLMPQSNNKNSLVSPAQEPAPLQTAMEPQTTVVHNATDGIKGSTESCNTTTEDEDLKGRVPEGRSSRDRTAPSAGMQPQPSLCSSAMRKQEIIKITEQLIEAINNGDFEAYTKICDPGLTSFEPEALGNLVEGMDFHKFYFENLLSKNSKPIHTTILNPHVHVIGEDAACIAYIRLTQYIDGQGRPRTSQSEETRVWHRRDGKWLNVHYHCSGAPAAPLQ

[9] = biological target: T7, MAPKAPK5 (Homo sapiens, UniProt Q8IW41); assay: as above; type: biochemical; settings: 1 µmol/L of BTK inhibitor
T7 construct: purchased Carna Biosciences
T7 sequence (Q8IW41 1-473): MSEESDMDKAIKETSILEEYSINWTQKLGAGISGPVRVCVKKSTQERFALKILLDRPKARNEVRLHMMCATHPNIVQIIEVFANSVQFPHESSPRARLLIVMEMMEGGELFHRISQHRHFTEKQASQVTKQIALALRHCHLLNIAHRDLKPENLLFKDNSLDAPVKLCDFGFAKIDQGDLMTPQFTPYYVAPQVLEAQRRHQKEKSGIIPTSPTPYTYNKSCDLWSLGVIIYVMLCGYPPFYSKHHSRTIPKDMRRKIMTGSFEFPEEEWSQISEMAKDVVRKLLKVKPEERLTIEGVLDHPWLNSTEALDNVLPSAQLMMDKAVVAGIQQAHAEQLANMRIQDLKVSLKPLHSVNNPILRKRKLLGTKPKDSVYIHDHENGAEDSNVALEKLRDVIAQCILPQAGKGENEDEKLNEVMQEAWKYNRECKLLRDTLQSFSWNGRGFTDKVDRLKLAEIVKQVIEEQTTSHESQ

[10] = biological target: T8, NEK4 (Homo sapiens, UniProt P51957); assay: as above; type: biochemical; settings: 1 µmol/L of BTK inhibitor
T8 construct: purchased Carna Biosciences

[11] = biological target: T9, PASK (Homo sapiens, UniProt Q96RG2); assay: as above; type: biochemical; settings: 1 µmol/L of BTK inhibitor
T9 construct: purchased Carna Biosciences
T9 sequence (Q96RG2 whole entry): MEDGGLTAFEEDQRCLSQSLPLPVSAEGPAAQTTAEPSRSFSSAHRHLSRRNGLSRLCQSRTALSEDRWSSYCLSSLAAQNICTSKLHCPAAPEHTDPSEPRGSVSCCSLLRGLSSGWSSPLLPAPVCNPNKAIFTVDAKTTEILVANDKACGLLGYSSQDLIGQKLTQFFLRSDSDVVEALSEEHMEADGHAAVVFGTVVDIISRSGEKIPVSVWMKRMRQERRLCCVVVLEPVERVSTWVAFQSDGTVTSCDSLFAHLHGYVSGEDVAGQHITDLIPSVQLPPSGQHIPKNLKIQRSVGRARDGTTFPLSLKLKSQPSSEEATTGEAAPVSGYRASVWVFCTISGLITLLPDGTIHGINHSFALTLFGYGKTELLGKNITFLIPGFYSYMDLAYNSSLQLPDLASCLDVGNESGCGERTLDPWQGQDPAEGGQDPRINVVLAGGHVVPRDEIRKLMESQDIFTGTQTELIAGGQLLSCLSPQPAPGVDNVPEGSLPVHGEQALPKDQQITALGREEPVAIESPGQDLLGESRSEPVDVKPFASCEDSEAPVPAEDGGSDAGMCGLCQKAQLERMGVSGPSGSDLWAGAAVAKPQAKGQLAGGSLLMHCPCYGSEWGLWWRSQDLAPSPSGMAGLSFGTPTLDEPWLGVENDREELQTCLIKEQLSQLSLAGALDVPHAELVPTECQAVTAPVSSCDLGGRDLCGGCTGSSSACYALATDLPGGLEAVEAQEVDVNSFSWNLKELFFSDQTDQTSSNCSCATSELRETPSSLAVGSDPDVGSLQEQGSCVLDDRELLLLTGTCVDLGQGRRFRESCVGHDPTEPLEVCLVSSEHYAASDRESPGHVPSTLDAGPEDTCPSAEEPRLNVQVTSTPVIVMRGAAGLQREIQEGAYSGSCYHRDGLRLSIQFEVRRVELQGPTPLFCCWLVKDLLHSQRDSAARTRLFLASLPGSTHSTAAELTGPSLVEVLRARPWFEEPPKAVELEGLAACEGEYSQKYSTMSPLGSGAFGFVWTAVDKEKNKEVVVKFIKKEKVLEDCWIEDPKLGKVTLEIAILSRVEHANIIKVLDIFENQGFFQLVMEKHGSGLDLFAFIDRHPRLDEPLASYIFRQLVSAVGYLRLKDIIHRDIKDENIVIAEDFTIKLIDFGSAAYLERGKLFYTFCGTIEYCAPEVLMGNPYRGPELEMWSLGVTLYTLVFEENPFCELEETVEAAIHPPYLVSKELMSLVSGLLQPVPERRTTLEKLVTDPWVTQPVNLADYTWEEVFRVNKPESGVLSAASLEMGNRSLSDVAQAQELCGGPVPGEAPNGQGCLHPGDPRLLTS

[12] = biological target: T10, RSK1 (Homo sapiens, UniProt Q15418); assay: as above; type: biochemical; settings: 1 µmol/L of BTK inhibitor
T10 construct: purchased Carna Biosciences
T10 sequence (Q15418 whole entry): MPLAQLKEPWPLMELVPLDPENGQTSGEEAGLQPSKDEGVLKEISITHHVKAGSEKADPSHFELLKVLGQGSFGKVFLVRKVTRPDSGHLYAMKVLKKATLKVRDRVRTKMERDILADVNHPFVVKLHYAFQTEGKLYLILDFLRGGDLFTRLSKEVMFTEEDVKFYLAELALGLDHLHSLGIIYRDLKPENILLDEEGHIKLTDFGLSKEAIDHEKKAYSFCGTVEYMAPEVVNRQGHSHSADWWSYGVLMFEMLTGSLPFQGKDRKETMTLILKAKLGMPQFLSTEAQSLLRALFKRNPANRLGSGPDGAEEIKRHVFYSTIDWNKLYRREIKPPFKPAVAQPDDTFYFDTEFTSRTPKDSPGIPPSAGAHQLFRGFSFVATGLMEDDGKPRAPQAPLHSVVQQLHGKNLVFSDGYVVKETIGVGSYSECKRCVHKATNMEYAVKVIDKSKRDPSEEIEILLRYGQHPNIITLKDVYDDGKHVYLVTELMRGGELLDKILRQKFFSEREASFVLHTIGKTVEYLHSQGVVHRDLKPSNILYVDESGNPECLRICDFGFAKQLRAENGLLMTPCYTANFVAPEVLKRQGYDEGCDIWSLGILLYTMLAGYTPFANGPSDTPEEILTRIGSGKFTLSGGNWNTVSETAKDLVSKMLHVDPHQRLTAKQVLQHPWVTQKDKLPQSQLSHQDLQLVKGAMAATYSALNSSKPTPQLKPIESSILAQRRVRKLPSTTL

[13] = biological target: T11, JAK2 (Homo sapiens, UniProt O60674); assay: as above; type: biochemical; settings: 1 µmol/L of BTK inhibitor
T11 construct: purchased Carna Biosciences

[14] = biological target: T12, MARK4 (Homo sapiens, UniProt Q96L34); assay: as above; type: biochemical; settings: 1 µmol/L of BTK inhibitor
T12 construct: purchased Carna Biosciences
T12 sequence (Q96L34 1-752): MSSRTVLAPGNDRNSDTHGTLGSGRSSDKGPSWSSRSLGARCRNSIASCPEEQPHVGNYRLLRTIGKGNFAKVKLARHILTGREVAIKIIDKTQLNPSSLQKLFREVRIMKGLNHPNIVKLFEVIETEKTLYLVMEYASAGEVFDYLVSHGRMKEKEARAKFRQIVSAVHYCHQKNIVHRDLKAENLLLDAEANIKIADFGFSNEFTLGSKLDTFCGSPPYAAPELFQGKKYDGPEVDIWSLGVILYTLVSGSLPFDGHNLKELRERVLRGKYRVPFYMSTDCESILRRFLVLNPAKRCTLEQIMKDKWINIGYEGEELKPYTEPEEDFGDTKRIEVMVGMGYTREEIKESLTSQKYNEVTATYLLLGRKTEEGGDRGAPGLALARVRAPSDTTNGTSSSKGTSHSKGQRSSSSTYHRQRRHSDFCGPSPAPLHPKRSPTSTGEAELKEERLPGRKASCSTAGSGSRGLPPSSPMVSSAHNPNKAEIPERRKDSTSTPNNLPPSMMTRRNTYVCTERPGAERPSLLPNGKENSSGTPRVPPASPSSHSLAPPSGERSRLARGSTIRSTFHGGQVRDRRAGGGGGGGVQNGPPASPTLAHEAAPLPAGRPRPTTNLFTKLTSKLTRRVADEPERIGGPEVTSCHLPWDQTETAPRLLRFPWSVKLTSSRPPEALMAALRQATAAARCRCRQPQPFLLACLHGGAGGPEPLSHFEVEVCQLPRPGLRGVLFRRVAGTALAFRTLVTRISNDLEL

[15] = biological target: T13, CDK3/CycE1 (Homo sapiens, UniProt Q00526); assay: as above; type: biochemical; settings: 1 µmol/L of BTK inhibitor
T13 construct: purchased Carna Biosciences

[16] = biological target: T14, MARK3 (Homo sapiens, UniProt P27448); assay: as above; type: biochemical; settings: 1 µmol/L of BTK inhibitor
T14 construct: purchased Carna Biosciences
T14 sequence (P27448 whole entry): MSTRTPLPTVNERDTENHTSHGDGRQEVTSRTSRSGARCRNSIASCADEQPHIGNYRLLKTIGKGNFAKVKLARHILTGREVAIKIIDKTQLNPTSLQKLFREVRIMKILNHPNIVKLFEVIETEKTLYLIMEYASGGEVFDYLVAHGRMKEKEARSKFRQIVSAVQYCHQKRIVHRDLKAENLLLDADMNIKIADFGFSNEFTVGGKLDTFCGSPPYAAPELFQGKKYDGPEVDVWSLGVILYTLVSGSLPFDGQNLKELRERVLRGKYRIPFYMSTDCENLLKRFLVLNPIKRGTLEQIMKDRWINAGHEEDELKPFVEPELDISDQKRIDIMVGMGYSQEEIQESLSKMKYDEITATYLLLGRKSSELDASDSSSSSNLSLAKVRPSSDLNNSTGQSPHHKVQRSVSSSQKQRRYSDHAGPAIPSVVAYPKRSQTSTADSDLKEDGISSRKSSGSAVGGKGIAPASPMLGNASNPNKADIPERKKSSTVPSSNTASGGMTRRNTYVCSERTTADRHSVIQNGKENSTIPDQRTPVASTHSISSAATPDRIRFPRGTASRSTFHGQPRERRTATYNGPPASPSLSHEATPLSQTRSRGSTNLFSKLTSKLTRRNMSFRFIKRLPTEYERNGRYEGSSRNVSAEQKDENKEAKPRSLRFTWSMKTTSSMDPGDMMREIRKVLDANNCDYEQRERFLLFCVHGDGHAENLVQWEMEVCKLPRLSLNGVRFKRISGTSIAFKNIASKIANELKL

[17] = biological target: T15, EPHA5 (Homo sapiens, UniProt P54756); assay: as above; type: biochemical; settings: 1 µmol/L of BTK inhibitor
T15 construct: purchased Carna Biosciences
T15 sequence (P54756 25-1037): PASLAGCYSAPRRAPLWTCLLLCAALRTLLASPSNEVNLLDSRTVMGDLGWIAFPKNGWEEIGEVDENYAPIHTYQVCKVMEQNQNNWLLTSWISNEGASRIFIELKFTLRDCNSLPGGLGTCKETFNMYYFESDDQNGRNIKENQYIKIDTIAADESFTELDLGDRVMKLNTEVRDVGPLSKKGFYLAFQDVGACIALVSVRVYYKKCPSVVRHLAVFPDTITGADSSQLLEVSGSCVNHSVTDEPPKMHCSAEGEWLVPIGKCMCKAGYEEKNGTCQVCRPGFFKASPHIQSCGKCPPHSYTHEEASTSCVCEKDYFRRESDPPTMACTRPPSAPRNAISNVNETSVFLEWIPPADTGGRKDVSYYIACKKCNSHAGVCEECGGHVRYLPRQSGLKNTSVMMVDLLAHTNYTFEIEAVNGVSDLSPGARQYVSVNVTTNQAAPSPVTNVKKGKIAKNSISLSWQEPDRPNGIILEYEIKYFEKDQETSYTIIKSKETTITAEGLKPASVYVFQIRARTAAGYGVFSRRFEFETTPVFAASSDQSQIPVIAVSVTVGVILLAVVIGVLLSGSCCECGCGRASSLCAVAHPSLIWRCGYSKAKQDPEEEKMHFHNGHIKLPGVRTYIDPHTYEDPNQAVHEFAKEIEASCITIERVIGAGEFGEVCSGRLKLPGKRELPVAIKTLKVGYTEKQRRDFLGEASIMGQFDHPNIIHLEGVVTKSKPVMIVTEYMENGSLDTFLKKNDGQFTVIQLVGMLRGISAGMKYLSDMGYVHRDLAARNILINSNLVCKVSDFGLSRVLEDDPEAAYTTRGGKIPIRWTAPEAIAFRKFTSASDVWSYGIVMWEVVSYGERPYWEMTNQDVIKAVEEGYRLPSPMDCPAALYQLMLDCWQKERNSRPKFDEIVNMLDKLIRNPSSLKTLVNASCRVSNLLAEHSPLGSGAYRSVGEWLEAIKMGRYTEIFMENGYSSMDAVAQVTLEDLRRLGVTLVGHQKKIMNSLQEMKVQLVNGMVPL

[18] = biological target: T16, CaMK4 (Homo sapiens, UniProt Q16566); assay: as above; type: biochemical; settings: 1 µmol/L of BTK inhibitor
T16 construct: purchased Carna Biosciences
T16 sequence (Q16566 1-473): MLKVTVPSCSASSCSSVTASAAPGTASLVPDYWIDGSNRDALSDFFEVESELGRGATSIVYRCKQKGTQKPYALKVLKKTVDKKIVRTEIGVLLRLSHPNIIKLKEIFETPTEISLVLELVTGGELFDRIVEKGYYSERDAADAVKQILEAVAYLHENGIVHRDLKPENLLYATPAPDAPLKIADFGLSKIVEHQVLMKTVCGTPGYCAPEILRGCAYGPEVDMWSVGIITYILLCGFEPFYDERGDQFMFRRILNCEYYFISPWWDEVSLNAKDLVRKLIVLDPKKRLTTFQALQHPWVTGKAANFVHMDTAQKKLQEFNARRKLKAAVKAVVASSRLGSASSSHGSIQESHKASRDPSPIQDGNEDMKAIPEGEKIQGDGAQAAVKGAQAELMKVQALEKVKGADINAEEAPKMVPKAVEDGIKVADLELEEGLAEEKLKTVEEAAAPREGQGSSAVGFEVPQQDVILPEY

CC#CC(=O)N1CCC[C@H]1c1nc(-c2ccc(C(=O)Nc3ccccn3)cc2)c2c(N)nccn12 [acalabrutinib]
Percentage inhibition of kinase enzyme activity [1]: 15.27%
Percentage inhibition of kinase enzyme activity [2]: -7.43%
Percentage inhibition of kinase enzyme activity [3]: 0.79%
Percentage inhibition of kinase enzyme activity [4]: -1.31%
Percentage inhibition of kinase enzyme activity [5]: -0.22%
Percentage inhibition of kinase enzyme activity [6]: -8.97%
Percentage inhibition of kinase enzyme activity [7]: -2.81%
Percentage inhibition of kinase enzyme activity [8]: -1.85%
Percentage inhibition of kinase enzyme activity [9]: -1.87%
Percentage inhibition of kinase enzyme activity [10]: -4.76%
Percentage inhibition of kinase enzyme activity [11]: -5.37%
Percentage inhibition of kinase enzyme activity [12]: 3.57%
Percentage inhibition of kinase enzyme activity [13]: -9.14%
Percentage inhibition of kinase enzyme activity [14]: -15.24%
Percentage inhibition of kinase enzyme activity [15]: -6.14%
Percentage inhibition of kinase enzyme activity [16]: -2.57%
Percentage inhibition of kinase enzyme activity [17]: -1.17%
Percentage inhibition of kinase enzyme activity [18]: -8.42%

C=CC(=O)N1CCC[C@@H](n2nc(-c3ccc(Oc4ccccc4)cc3)c3c(N)ncnc32)C1 [ibrutinib]
Percentage inhibition of kinase enzyme activity [2]: 0.80%
Percentage inhibition of kinase enzyme activity [3]: 5.67%
Percentage inhibition of kinase enzyme activity [4]: 81.85%
Percentage inhibition of kinase enzyme activity [5]: 4.70%
Percentage inhibition of kinase enzyme activity [6]: 36.91%
Percentage inhibition of kinase enzyme activity [7]: 7.80%
Percentage inhibition of kinase enzyme activity [8]: -1.83%
Percentage inhibition of kinase enzyme activity [9]: -2.44%
Percentage inhibition of kinase enzyme activity [10]: 4.65%
Percentage inhibition of kinase enzyme activity [11]: -0.0437%
Percentage inhibition of kinase enzyme activity [12]: 5.47%
Percentage inhibition of kinase enzyme activity [13]: 0.41%
Percentage inhibition of kinase enzyme activity [14]: -14.26%
Percentage inhibition of kinase enzyme activity [15]: 0.49%
Percentage inhibition of kinase enzyme activity [16]: -5.88%
Percentage inhibition of kinase enzyme activity [17]: 25.73%
Percentage inhibition of kinase enzyme activity [18]: 2.93%

O=C(c1ccc(Oc2ccccc2)cc1Cl)c1c[nH]c2ncnc(N[C@@H]3CC[C@@H](CO)OC3)c12 [nemtabrutinib]
Percentage inhibition of kinase enzyme activity [1]: -0.08%
Percentage inhibition of kinase enzyme activity [2]: 0.06%
Percentage inhibition of kinase enzyme activity [3]: 47.36%
IC50 [4]: 70.1 nM
Percentage inhibition of kinase enzyme activity [4]: 86.25%
Percentage inhibition of kinase enzyme activity [5]: 81.76%
IC50 [6]: 1400 nM
Percentage inhibition of kinase enzyme activity [6]: 1.97%
Percentage inhibition of kinase enzyme activity [7]: 56.26%
Percentage inhibition of kinase enzyme activity [8]: 1.06%
Percentage inhibition of kinase enzyme activity [9]: -2.46%
Percentage inhibition of kinase enzyme activity [10]: 7.11%
Percentage inhibition of kinase enzyme activity [11]: 21.76%
Percentage inhibition of kinase enzyme activity [12]: 17.84%
Percentage inhibition of kinase enzyme activity [13]: 14.34%
Percentage inhibition of kinase enzyme activity [14]: 20.90%
Percentage inhibition of kinase enzyme activity [15]: 7.04%
Percentage inhibition of kinase enzyme activity [16]: 10.97%
Percentage inhibition of kinase enzyme activity [17]: 100.38%
Percentage inhibition of kinase enzyme activity [18]: 5.83%

C=CC(=O)N1CCC([C@@H]2CCNc3c(C(N)=O)c(-c4ccc(Oc5ccccc5)cc4)nn32)CC1 [zanubrutinib]
Percentage inhibition of kinase enzyme activity [4]: 6.11%
Percentage inhibition of kinase enzyme activity [6]: 0.81%
Percentage inhibition of kinase enzyme activity [10]: 0.95%
Percentage inhibition of kinase enzyme activity [13]: 9.66%
Percentage inhibition of kinase enzyme activity [17]: 13.96%

COc1ccc(F)cc1C(=O)NCc1ccc(-c2nn([C@@H](C)C(F)(F)F)c(N)c2C(N)=O)cc1 [pirtobrutinib]
Percentage inhibition of kinase enzyme activity [1]: -6.41%
Percentage inhibition of kinase enzyme activity [2]: 3.04%
Percentage inhibition of kinase enzyme activity [3]: 11.58%
Percentage inhibition of kinase enzyme activity [4]: 1.40%
Percentage inhibition of kinase enzyme activity [5]: 8.30%
Percentage inhibition of kinase enzyme activity [6]: 1.27%
Percentage inhibition of kinase enzyme activity [7]: 2.26%
Percentage inhibition of kinase enzyme activity [8]: -1.71%
Percentage inhibition of kinase enzyme activity [9]: -1.10%
Percentage inhibition of kinase enzyme activity [10]: -3.18%
Percentage inhibition of kinase enzyme activity [11]: 3.07%
Percentage inhibition of kinase enzyme activity [12]: 5.53%
Percentage inhibition of kinase enzyme activity [13]: 0.45%
Percentage inhibition of kinase enzyme activity [14]: -2.93%
Percentage inhibition of kinase enzyme activity [15]: -4.77%
Percentage inhibition of kinase enzyme activity [16]: 5.64%
Percentage inhibition of kinase enzyme activity [17]: 0.45%
Percentage inhibition of kinase enzyme activity [18]: -9.89%

Source: article PMC12586182 (Frontiers in Oncology, 2025)
